In patent US20240317721A1, “PYRAZOLYL DERIVATIVES AS INHIBITORS OF THE KRAS MUTANT PROTEIN” (NOVARTIS AG, priority 2021, published 2024):

molecular target: KRasG12C (M1-K169, biotinylated on the N-terminus) (Homo sapiens (Human), UniProt P01116, G12C); assay: Covalent competition assay: scintillation proximity assay (SPA) quantifying covalent modification of KRASG12C; format: binding; conditions: competition with radiolabeled covalent probe (Compound B/Compound A), 2 hours incubation, 10 nM KRasG12C
Outline: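 Scintillation proximity readout after streptavidin bead capture (30 min) of biotinylated KRasG12C(M1-K169):GDP, 10 nM final, which was covalently labelled over 2 h by 25 nM radio-probe plus 475 nM cold probe unless blocked by compound.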

Row | IC50 [nM] | SMILES
1 | 27 | C=CC(=O)N1CC2(CC(n3nc(N4CCN(CCO)CC45CCC5)c(-c4c(Cl)c(C)cc5[nH]ncc45)c3C)C2)C1 (single isomer, unassigned) [Example 162b, 1-(6-(4-(5-chloro-6-methyl-1H-indazol-4-yl)-3-(8-(2-hydroxyethyl)-5,8-diazaspiro[3.5]nonan-5-yl)-5-methyl-1H-pyrazol-1-yl)-2-azaspiro[3.3]heptan-2-yl)prop-2-en-1-one]
2 | > 5000 | C=CC(=O)N1CC2(CC(n3nc(N4CCN(CCO)CC4(C)C)c(-c4c(Cl)c(C)cc5[nH]ncc45)c3C)C2)C1 (single isomer, unassigned) [Example 163a, 1-(6-(4-(5-chloro-6-methyl-1H-indazol-4-yl)-3-(4-(2-hydroxyethyl)-2,2-dimethylpiperazin-1-yl)-5-methyl-1H-pyrazol-1-yl)-2-azaspiro[3.3]heptan-2-yl)prop-2-en-1-one]
3 | 114 | C=CC(=O)N1CC2(CC(n3nc(N4CCN(CCO)CC4(C)C)c(-c4c(Cl)c(C)cc5[nH]ncc45)c3C)C2)C1 (single isomer, unassigned) [Example 163b, 1-(6-(4-(5-chloro-6-methyl-1H-indazol-4-yl)-3-(4-(2-hydroxyethyl)-2,2-dimethylpiperazin-1-yl)-5-methyl-1H-pyrazol-1-yl)-2-azaspiro[3.3]heptan-2-yl)prop-2-en-1-one]
4 | > 5000 | C=CC(=O)N1CC2(CC(n3nc(N4CCN(CC(C)(C)O)C[C@@]4(C)CC)c(-c4c(Cl)c(C)cc5[nH]ncc45)c3C)C2)C1 (single isomer, unassigned) [Example 164a]
5 | 56 | C=CC(=O)N1CC2(CC(n3nc(N4CCN(CC(C)(C)O)C[C@@]4(C)CC)c(-c4c(Cl)c(C)cc5[nH]ncc45)c3C)C2)C1 (single isomer, unassigned) [Example 164b]
6 | > 5000 | C=CC(=O)N1CC2(CC(n3nc(N4CCN(CC(C)(C)O)CC45CCCC5)c(-c4c(Cl)c(C)cc5[nH]ncc45)c3C)C2)C1 (single isomer, unassigned) [Example 165a, 1-(6-(4-(5-chloro-6-methyl-1H-indazol-4-yl)-3-(9-(2-hydroxy-2-methylpropyl)-6,9-diazaspiro[4.5]decan-6-yl)-5-methyl-1H-pyrazol-1-yl)-2-azaspiro[3.3]heptan-2-yl)prop-2-en-1-one]
7 | 26 | C=CC(=O)N1CC2(CC(n3nc(N4CCN(CC(C)(C)O)CC45CCCC5)c(-c4c(Cl)c(C)cc5[nH]ncc45)c3C)C2)C1 (single isomer, unassigned) [Example 165b, 1-(6-(4-(5-chloro-6-methyl-1H-indazol-4-yl)-3-(9-(2-hydroxy-2-methylpropyl)-6,9-diazaspiro[4.5]decan-6-yl)-5-methyl-1H-pyrazol-1-yl)-2-azaspiro[3.3]heptan-2-yl)prop-2-en-1-one]
8 | > 5000 | C=CC(=O)N1CC2(CC(n3nc(N4CCN(CC(C)(C)O)C[C@@]4(C)C(F)F)c(-c4c(Cl)c(C)cc5[nH]ncc45)c3C)C2)C1 (single isomer, unassigned) [Example 166a]
9 | 51 | C=CC(=O)N1CC2(CC(n3nc(N4CCN(CC(C)(C)O)C[C@@]4(C)C(F)F)c(-c4c(Cl)c(C)cc5[nH]ncc45)c3C)C2)C1 (single isomer, unassigned) [Example 166b]
10 | > 5000 | C=CC(=O)N1CC2(CC(n3nc(N4CCN(CC(C)(C)O)CC45CCC5)c(-c4c(Cl)c(F)cc5[nH]ncc45)c3C)C2)C1 (single isomer, unassigned) [Example 167a, 1-(6-(4-(5-chloro-6-fluoro-1H-indazol-4-yl)-3-(8-(2-hydroxy-2-methylpropyl)-5,8-diazaspiro[3.5]nonan-5-yl)-5-methyl-1H-pyrazol-1-yl)-2-azaspiro[3.3]heptan-2-yl)prop-2-en-1-one]
11 | 31 | C=CC(=O)N1CC2(CC(n3nc(N4CCN(CC(C)(C)O)CC45CCC5)c(-c4c(Cl)c(F)cc5[nH]ncc45)c3C)C2)C1 (single isomer, unassigned) [Example 167b, 1-(6-(4-(5-chloro-6-fluoro-1H-indazol-4-yl)-3-(8-(2-hydroxy-2-methylpropyl)-5,8-diazaspiro[3.5]nonan-5-yl)-5-methyl-1H-pyrazol-1-yl)-2-azaspiro[3.3]heptan-2-yl)prop-2-en-1-one]
12 | > 5000 | C=CC(=O)N1CC2(CC(n3nc(N4CCN(C[C@@H]5COCCO5)CC45CCC5)c(-c4c(Cl)c(C)cc5[nH]ncc45)c3C)C2)C1 (single isomer, unassigned) [Example 169a]
13 | 12 | C=CC(=O)N1CC2(CC(n3nc(N4CCN(C[C@@H]5COCCO5)CC45CCC5)c(-c4c(Cl)c(C)cc5[nH]ncc45)c3C)C2)C1 (single isomer, unassigned) [Example 169b]
14 | > 50000 | C=CC(=O)N1CC2(CC(n3nc(N4CCN(CCOC)CC4(C)C)c(-c4c(Cl)c(C)cc5[nH]ncc45)c3C)C2)C1 (single isomer, unassigned) [Example 170a, 1-(6-(4-(5-chloro-6-methyl-1H-indazol-4-yl)-3-(4-(2-methoxyethyl)-2,2-dimethylpiperazin-1-yl)-5-methyl-1H-pyrazol-1-yl)-2-azaspiro[3.3]heptan-2-yl)prop-2-en-1-one]
15 | 60 | C=CC(=O)N1CC2(CC(n3nc(N4CCN(CCOC)CC4(C)C)c(-c4c(Cl)c(C)cc5[nH]ncc45)c3C)C2)C1 (single isomer, unassigned) [Example 170b, 1-(6-(4-(5-chloro-6-methyl-1H-indazol-4-yl)-3-(4-(2-methoxyethyl)-2,2-dimethylpiperazin-1-yl)-5-methyl-1H-pyrazol-1-yl)-2-azaspiro[3.3]heptan-2-yl)prop-2-en-1-one]
16 | > 5000 | C=CC(=O)N1CC2(CC(n3nc(N4CCN(C[C@@H]5COCCO5)CC45CCC5)c(-c4c(Cl)c(Cl)cc5[nH]ncc45)c3C)C2)C1 (single isomer, unassigned) [Example 171a]

Row | IC50 [nM] | SMILES
17 | 8 | C=CC(=O)N1CC2(CC(n3nc(N4CCN(C[C@@H]5COCCO5)CC45CCC5)c(-c4c(Cl)c(Cl)cc5[nH]ncc45)c3C)C2)C1 (single isomer, unassigned) [Example 171b]
18 | 3900 | C=CC(=O)N1CC2(CC(n3nc(N4CCN(C[C@@H]5COCCO5)CC4(C)C)c(-c4c(Cl)c(Cl)cc5[nH]ncc45)c3C)C2)C1 (single isomer, unassigned) [Example 172a]
19 | 15 | C=CC(=O)N1CC2(CC(n3nc(N4CCN(C[C@@H]5COCCO5)CC4(C)C)c(-c4c(Cl)c(Cl)cc5[nH]ncc45)c3C)C2)C1 (single isomer, unassigned) [Example 172b]
20 | 2900 | C=CC(=O)N1CC2(CC(n3nc(N4CCN(C[C@@H]5COCCO5)C[C@]4(C)CC)c(-c4c(Cl)c(C)cc5[nH]ncc45)c3C)C2)C1 (single isomer, unassigned) [Example 173a]
21 | 5 | C=CC(=O)N1CC2(CC(n3nc(N4CCN(C[C@@H]5COCCO5)C[C@]4(C)CC)c(-c4c(Cl)c(C)cc5[nH]ncc45)c3C)C2)C1 (single isomer, unassigned) [Example 173b]
22 | > 5000 | C=C(F)C(=O)N1CC2(CC(n3nc(N4CCN(C[C@@H]5COCCO5)C[C@]4(C)CC)c(-c4c(Cl)c(C)cc5[nH]ncc45)c3C)C2)C1 (single isomer, unassigned) [Example 174a]
23 | 121 | C=C(F)C(=O)N1CC2(CC(n3nc(N4CCN(C[C@@H]5COCCO5)C[C@]4(C)CC)c(-c4c(Cl)c(C)cc5[nH]ncc45)c3C)C2)C1 (single isomer, unassigned) [Example 174b]
24 | 939 | CC[C@@]1(C)CN(C[C@@H]2COCCO2)CCN1c1nn(C2CC3(C2)CN(C(=O)/C=C/Cl)C3)c(C)c1-c1c(Cl)c(C)cc2[nH]ncc12 (single isomer, unassigned) [Example 175a]
25 | 9 | CC[C@@]1(C)CN(C[C@@H]2COCCO2)CCN1c1nn(C2CC3(C2)CN(C(=O)/C=C/Cl)C3)c(C)c1-c1c(Cl)c(C)cc2[nH]ncc12 (single isomer, unassigned) [Example 175b]
26 | 8 | C=CC(=O)N1CC2(CC(n3nc(N4CCN(CCN5CCOCC5=O)C[C@]4(C)CC)c(-c4c(Cl)c(C)cc5[nH]ncc45)c3C)C2)C1 (single isomer, unassigned) [Example 177a]
27 | 1700 | C=CC(=O)N1CC2(CC(n3nc(N4CCN(CCN5CCOCC5=O)C[C@]4(C)CC)c(-c4c(Cl)c(C)cc5[nH]ncc45)c3C)C2)C1 (single isomer, unassigned) [Example 177b]
28 | 3900 | C=CC(=O)N1CC2(CC(n3nc(N4CCN(CCOC)C[C@]4(C)C(F)F)c(-c4c(Cl)c(C)cc5[nH]ncc45)c3C)C2)C1 (single isomer, unassigned) [Example 178a]
29 | 48 | C=CC(=O)N1CC2(CC(n3nc(N4CCN(CCOC)C[C@]4(C)C(F)F)c(-c4c(Cl)c(C)cc5[nH]ncc45)c3C)C2)C1 (single isomer, unassigned) [Example 178b]
30 | > 5000 | C=CC(=O)N1CC2(CC(n3nc(N4CCN(CCOC)C[C@@]4(C)C(F)F)c(-c4c(Cl)c(C)cc5[nH]ncc45)c3C)C2)C1 (single isomer, unassigned) [Example 179a]
31 | 38 | C=CC(=O)N1CC2(CC(n3nc(N4CCN(CCOC)C[C@@]4(C)C(F)F)c(-c4c(Cl)c(C)cc5[nH]ncc45)c3C)C2)C1 (single isomer, unassigned) [Example 179b]
32 | > 5000 | C=CC(=O)N1CC2(CC(n3nc(N4CCN(C(C)(C)C(=O)OC)CC45CCC5)c(-c4c(Cl)c(C)cc5[nH]ncc45)c3C)C2)C1 (single isomer, unassigned) [Example 180a, methyl 2-(5-(1-(2-acryloyl-2-azaspiro[3.3]heptan-6-yl)-4-(5-chloro-6-methyl-1H-indazol-4-yl)-5-methyl-1H-pyrazol-3-yl)-5,8-diazaspiro[3.5]nonan-8-yl)-2-methylpropanoate]
